Experimental data taken from patent US12661353B2, “SPT5 inhibitors and uses thereof” (Yeda Research and Development Co. Ltd., priority 2020, dated 2026).
“Also recorded” adds a separate entry of the source. Read-outs that look alike come from different tables or passages of the source.

Tests used:
mutant (Q111) Htt = experiment: Htt mRNA levels in Q111 striatal cells, qPCR; on Down-regulating transcription of Mutant Htt (i.e. inhibiting transcription elongation of mutant Htt gene induced by Spt5): key: + represent a statistically significant effect; assay type: cell-based, mouse; conditions: for effect on mutant (Q111) Htt mRNA expression, in words / Down-regulating transcription of Mutant Htt (i.e. inhibiting transcription elongation of mutant Htt gene induced by Spt5): 48 hours; for Down-regulating transcription of Mutant Htt (i.e. inhibiting transcription elongation of mutant Htt gene induced by Spt5): Q111 striatal cells
Procedure: (§1) Cell culture—HEK293T, HeLa, MCF7, Jurkat and mouse embryonic fibroblasts (MEFs) cells were grown and maintained in Dulbecco's modified Eagle's medium supplemented with 10% fetal calf serum (Gibco) and 1% penicillin-streptomycin. To avoid NF-κB activity, HeLa cells were kept from reaching confluence and re-plated no more than 10 times following initial thawing. To induce NF-κB activity, cells were treated with […] recombinant human TNF-α (Peprotech) for the indicated times. STHdh Q111 and STHdh Q7 striatal cell lines (Coriell Institute for Medical Research) were grown in Dulbecco's modified Eagle's medium supplemented with 10% fetal calf serum (Gibco), 1% penicillin-streptomycin and 0.4 mg/ml G418 at 33° C. The cells were re-plated no more than 5-6 times, as recommended.
Huntington's disease (HD) is an inherited genetic disorder caused by expansion trinucleotide CAG repeats (36 and higher) encoding glutamine (Q) in the huntingtin (Htt) gene. Expression of the mutant gene in neurons of the striatum and the frontal cortex leads to degeneration of neuronal cells that control body movements, emotions and intellect. […] To examine the potential effect of SPIs in this context, striatal cell lines established from wild type (Q7) or from mutant (Q111) Htt knock-in mice were used. In these cell lines the coding region of the first exon of the mouse Htt gene was replaced with the same region of human wild type (Q7) or mutant (Q111) Htt, as schematically shown in FIG. 6A. The two cell lines were treated for 48 hours with the identified SPIs and following the levels of Htt mRNA were determined.
The compounds were tested as described in Example 4 hereinabove. In brief, Q111 (or Q7, where indicated) expressing Striatal cells were treated with the tested compound at the indicated concentrations for 48 hours. Then, RNA was extracted and levels of Htt mRNA were determined by qRT-PCR and normalized to β-actin. The data was analysed using GraphPad Prism software.

Spt5 activities = experiment: Combined effects on the various Spt5 activities (summary of Examples 1-4); assay type: cell-based
[1] = tested on: pro-inflammatory genes A20, CCL20, IL6, IL8, CXCL2, JUNB and IEX1; experiment: mRNA levels of pro-inflammatory genes under basal conditions, HeLa, RT-qPCR; assay type: cell-based, human; conditions: HeLa cells, 2 hours, 50 μM SPI
Procedure: as §1
(§2) RNA analysis—Total RNA was extracted using Tri-reagent (Bio-Lab Chemicals) and Direct-Zol™ RNA MiniPrep kit (Zymo Research). Following, cDNA was synthesized from […] of total RNA using a High-Capacity cDNA Reverse Transcription Kit (ABI, Thermo Fisher Scientific). cDNA samples were analyzed by quantitative PCR (qPCR) in a ViiA 7 Real-Time PCR System using Fast qPCRBIO SYBR Green Mix (PCR Biosystems).
Thus, a subset of Spt5-responsive pro-inflammatory genes from the aforementioned studies and from others (Aida et al., 2006; Fujita et al., 2009), namely A20, CCL20, IL6, IL8, CXCL2, JUNB and IEX1, were selected and the effect of the identified SPIs on their expression under basal conditions and in response to NF-κB activation was tested (FIGS. 2A-C and 3A-C). Specifically, for analyzing expression under basal conditions, Hela cells were treated with vehicle (DMSO) or SPI for 2 hours and following RNA was extracted and analyzed by RT-qPCR.

[2] = tested on: pro-inflammatory genes A20, CCL20, IL6, IL8, CXCL2, JUNB and IEX1; experiment: mRNA levels of pro-inflammatory genes under TNFα-induced conditions, HeLa, RT-qPCR; assay type: cell-based, human; conditions: for Down-regulating transcription of pro-inflammatory genes under TNFα induced conditions (i.e. inhibiting transcription elongation of pro-inflammatory genes induced by Spt5): HeLa cells, SPI 1 hour then TNFα 1 hour; for effect on TNFα-induced levels of pro-inflammatory genes, in words: HeLa, SPI (50 μM or less) 1 hour then TNFα 1 hour
Procedure: as §1, §2
In the next step, the effect of the identified SPIs on expression of the selected genes following NF-κB activation was analyzed. Specifically, Hela cells were pre-incubated with DMSO or SPI (50 μM or less) for 1 hour followed by treatment with TNFα for an additional 1 hour.

| SMILES | effect on mutant (Q111) Htt mRNA expression, in words (mutant (Q111) Htt) | Down-regulating transcription of Mutant Htt (i.e. inhibiting transcription elongation of mutant Htt gene induced by Spt5) (mutant (Q111) Htt) | classification by effect on the various Spt5 activities, in words (Spt5 activities) | classification by effect on the various Spt5 activities, in words (Spt5 activities; listed as SPJ-09) | Up-regulation of pro-inflammatory genes under basal conditions (i.e. inhibiting proximal promoter pausing of pro-inflammatory genes induced by Spt5) [1] | Down-regulating transcription of pro-inflammatory genes under TNFα induced conditions (i.e. inhibiting transcription elongation of pro-inflammatory genes induced by Spt5) [2] | effective concentration on mutant Htt lower than the concentration needed to inhibit expression of the pro-inflammatory genes (mutant (Q111) Htt) | effect on TNFα-induced levels of pro-inflammatory genes, in words [2] | classification by effect on the various Spt5 activities, in words (Spt5 activities; listed as SPJ-85) |
| --- | --- | --- | --- | --- | --- | --- | --- | --- | --- |
| O=c1oc2cc(O)ccc2s1 [SPI-09] | diminished mutant Htt expression | + | little or no effect on basal and induced pro-inflammatory gene expression | a single activity as SPI inhibitors towards inhibiting transcription of Htt gene | – | – | – | – | – |
| N#CC(C#N)=CC=C(Sc1ncc(C(F)(F)F)cc1Cl)c1ccc(Cl)cc1 [SPI-16] | did not affect mutant Htt expression | – | affected the basal and the TNFα-induced pro-inflammatory gene transcription | – | ++ (++ >3) | +++ (+++ represent >80% inhibition) | – | – | – |
| CN(Cc1cnn(Cc2ccccc2)c1)c1ccc2nnc(-c3ccccc3)n2n1 [SPI-17] | did not affect mutant Htt expression | – | affected the basal and the TNFα-induced pro-inflammatory gene transcription | – | +++ (+++ represent effect >10) | +++ (+++ represent >80% inhibition) | – | – | – |
| O=C(/C=C/c1ccc(O)cc1)CC(=O)/C=C/c1ccc(O)cc1 [SPI-29] | – | + | affect all the tested Spt5 activities | – | ++ (++ >3) | +++ (+++ represent >80% inhibition) | – | – | – |
| CCc1ccccc1NS(=O)(=O)c1ccc(-n2ncc(Cl)c(Cl)c2=O)cc1 [SPI-31] | efficacy in selectively inhibiting transcription of Htt gene | + | inhibited mainly the positive activity of Spt5 with little or no effect on proximal promoter pausing; also recorded: a single activity as SPI inhibitors towards inhibiting transcription of Htt gene | – | – | +++ (+++ represent >80% inhibition) | about 15 fold | – | – |
| CCN(CC)CCOc1ccc(C(=C(Cl)c2ccccc2)c2ccccc2)cc1 [SPI-42] | did not affect mutant Htt expression | – | affected the basal and the TNFα-induced pro-inflammatory gene transcription | – | + (+ >1.6) | ++ (++ >65%) | – | affected mainly the genes that were strongly induced by the TNFα treatment | – |
| O=C(O)c1ccc(C=C2CSc3c(F)cccc3C2=O)cc1 [SPI-46] | did not affect mutant Htt expression | – | affected the basal and the TNFα-induced pro-inflammatory gene transcription | – | + (+ >1.6) | +++ (+++ represent >80% inhibition) | – | – | – |
| OCc1ccc(-c2ccc(-c3ccc(CO)s3)o2)s1 [SPI-48] | – | + | a single activity as SPI inhibitors towards inhibiting transcription of Htt gene | – | – | – | – | – | – |
| Cc1ccnc(SC=CC(=O)c2ccccc2)n1 [SPI-57] | did not affect mutant Htt expression | – | affected the basal and the TNFα-induced pro-inflammatory gene transcription | – | + (+ >1.6) | +++ (+++ represent >80% inhibition) | – | – | – |
| O=C(O)c1ccc(C=C2CSc3ccc(F)cc3C2=O)cc1 [SPI-68] | – | + | – | – | + (+ >1.6) | ++ (++ >65%) | – | affected mainly the genes that were strongly induced by the TNFα treatment | – |
| Nc1ccc2ncnc(NCCc3ccc(Oc4ccccc4)cc3)c2c1 [SPI-74] | – | + | affect all the tested Spt5 activities | – | + (+ >1.6) | ++ (++ >65%) | – | affected mainly the genes that were strongly induced by the TNFα treatment | – |
| CN(C)c1ccc(C2NCC(CSc3nc4ccccc4s3)O2)cc1 (centres unmarked) [SPI-85] | diminished mutant Htt expression | + | little or no effect on basal and induced pro-inflammatory gene expression | – | – | – | – | – | a single activity as SPI inhibitors towards inhibiting transcription of Htt gene |
| COc1ccc(C2=NCC(CSc3nc4cc(Cl)ccc4o3)S2)cc1 (centres unmarked) [SPI-0324] | efficacy in selectively inhibiting transcription of Htt gene | – | – | – | – | – | – | – | – |
| CSc1ccccc1NS(=O)(=O)c1ccc(-n2ncc(Cl)c(Cl)c2=O)cc1 [SPI-1477] | efficacy in selectively inhibiting transcription of Htt gene | – | – | – | – | – | – | – | – |
| CCc1ccccc1NS(=O)(=O)c1ccc(-n2ncccc2=O)cc1 [SPI-4516K, N-(2-ethylphenyl)-4-(6-oxopyridazin-1(6H)-yl)benzenesulfonamide] | efficacy in selectively inhibiting transcription of Htt gene | – | – | – | – | – | – | – | – |
| OCc1ccc(-c2ccc(-c3cccs3)s2)s1 [SPI-8108] | efficacy in selectively inhibiting transcription of Htt gene | – | – | – | – | – | – | – | – |
